Assay [1] relates to lipid peroxidation (rat liver homogenate). Description: Antioxidant activity, inhibition of iron induced lipid peroxidation in liver homogenate. It counts as biochemical, Wistar rat. The settings on record: FeSO4, 37° C., 2 h; <25 μM where IC50 was not determined. As for the experimental part: The liver of a Wistar rat anesthetized with ether was collected and homogenized in 4 volumes of phosphate buffer (+4° C., pH 7.4) by means of a Potter. After centrifugation at 2000 rpm for 10 min the supernatant obtained was kept at +4° C. Lipid peroxidation was carried out in presence of FeSOhd according to the method described by A. T. Quitaniha et at, Ann.
The mixture contained 1.7 ml phosphate buffer, 0.2 ml homogenate and 0.1 ml of a 2 mM FeSO4 solution. The test compounds were added in a volume of 61 μl of ethanol or DMSO. Oxydation was carried out at 37° C. for 2 h and was stopped by the addition of 20 μl of 2% ethanolic solution of BHT.

In the next assay the test system is plasma cholesterol. Kind of assay: Hypocholesterolemic activity, plasma cholesterol in mice fed test compound in diet. It counts as in vivo, OF1 strain mice. Conditions: for change in vivo at 180 mg/kg/day: Mus musculus, feed or water, 240 h, read-out: Plasma Cholesterol (% Control), 0.1% compound in food, 10 days, ca. 180 mg/kg daily, mouse; for decrease plasma cholesterol by: mouse, 0.1% in food, 10 days. As for the experimental part: A. Hypocholesterolemic activity
Mouse fed a normal diet is a convenient model which was proposed by several authors (P. Olivier et al, Atherosclerosis 70, 107-114, 1988) ,for the screening for hypocholesterolemic drugs. OF1 strain mice (Iffa Credo) weighing between 25 and 35 g were divided into 5 groups of 5 animals each, four groups received the test compounds and the fifth group served as control. The test compounds were dissolved in diethyl ether. The ether solution was added to food to obtain a final concentration of 0.1%. compound in food. Ether was then evaporated at room temperature. The animals were fed for 10 days, the dally food intake corresponds to ca. 180 mg/kg. After an overnight fast, they were sacrificed by decapitation under ether anesthesia. Blood samples were collected using EDTA as anticoagulant.
Plasma cholesterol was measured by an enzymatic test (DIAMED, Morat, Switzerland). The mean values of each group receiving the test or reference compounds were expressed as percent of mean value of the contemporary control.

Molecules are shown by their SMILES. A value given as a limit tells only on which side of the number the result lay.

In general, IC50 refers to the concentration at which inhibition is half-maximal.

The compound `CCOP(=O)(OCC)C(NCCc1ccc(O)cc1)c1cc(C(C)(C)C)c(O)c(C(C)(C)C)c1` (stereo not shown) [Compound 15] displayed a 50% inhibitory concentration (IC50) in assay [1] below 25 µM. The change in vivo at 180 mg/kg/day in the assay on plasma cholesterol was -18%.
Taken in the same sequence, the figures for `COP(=O)(OC)C(c1cc(C(C)(C)C)c(O)c(C(C)(C)C)c1)N(CCCc1ccccc1)C(C)=O` (stereo not shown) [Compound 59] were below 25 µM and -36%.
Taken in the same sequence, the figures for `CCOP(=O)(OCC)C(c1cc(C(C)(C)C)c(O)c(C(C)(C)C)c1)N(C)Cc1cccnc1` (stereo not drawn) [Compound 49, Diethyl α-(3.,5-di-tert-butyl-4-hydroxyphenyl)-N-methyl-N-(3-picolyl)aminomethylphosphonate] were 12.8 µM and -19%.
Taken in the same sequence, the figures for `CCOP(=O)(OCC)C(NC1CCCCC1)c1cc(C(C)(C)C)c(O)c(C(C)(C)C)c1` (stereo not shown) [Compound 65] were below 25 µM and 7%.
In assay [1], `CCOP(=O)(OCC)C(Nc1nc2ccccc2s1)c1cc(C(C)(C)C)c(O)c(C(C)(C)C)c1` (stereo not drawn) [Compound 44, Diethyl α-(3.5-di-tert-butyl-4-hydroxyphenyl)-N-(2-benzothiazolyl)-aminomethylphosphonate] showed an IC50 below 25 µM. Further, the change in vivo at 180 mg/kg/day in the assay on plasma cholesterol was -17%.
`CCOc1ccc(NC(c2cc(C(C)(C)C)c(O)c(C(C)(C)C)c2)P(=O)(OCC)OCC)cc1` (stereo not shown) [Compound 9]: in assay [1], the IC50 was below 25 µM. Besides, in the assay with plasma cholesterol, the change in vivo at 180 mg/kg/day was -31% and the “decrease plasma cholesterol by” value is recorded as “more than 30%”.
Turning to `CCOP(=O)(OCC)C(NC(c1ccccc1)c1ccccc1)c1cc(C(C)(C)C)c(O)c(C(C)(C)C)c1` (stereo not shown) [Compound 32], the IC50 in assay [1] was below 25 µM. Further, the change in vivo at 180 mg/kg/day in the assay on plasma cholesterol is -12%.
For the compound `CCOP(=O)(OCC)C(Nc1ccc(O)cc1)c1cc(C(C)(C)C)c(O)c(C(C)(C)C)c1` (stereo not shown) [Compound 4], inhibition in assay [1] was half-maximal at 4.1 µM (IC50). Also, the change in vivo at 180 mg/kg/day with plasma cholesterol is -15%.
For `CCOP(=O)(OCC)C(c1cc(C(C)(C)C)c(O)c(C(C)(C)C)c1)N(CCCc1ccccc1)C(C)=O` (stereo not drawn) [Compound 60, Diethyl α-(3,5-di-tert-butyl-4-hydroxyphenyl)-N-acetyl-N-(3-phenylpropyl)-aminomethylphosphonate], half-maximal inhibition in assay [1] (IC50) was put at 2.6 µM. Moreover, in the assay with plasma cholesterol, the change in vivo at 180 mg/kg/day was -49% and the “decrease plasma cholesterol by” value is given as “more than 30%”.
Taken in the same sequence, the figures for `CCOP(=O)(OCC)C(NCCc1ccccc1)c1cc(C(C)CC)c(O)c(C(C)CC)c1` (stereo not drawn) [Compound 73, Diethyl α-(3,5 di-sec-butyl-4-hydroxyphenyl)-N-(2-phenylethyl) aminomethylphosphonate] were 2.9 µM, -40% and “more than 30%”.
Taken in the same sequence, the figures for `CCOP(=O)(OCC)C(NC(C)c1ccccc1)c1cc(C(C)(C)C)c(O)c(C(C)(C)C)c1` (stereo not drawn) [Compound 29, Diethyl α-(3,5-di-tert-butyl-4-hydroxyphenyl)-N-(1-phenylethyl)-aminomethyldiphosphonate] were 5.5 µM, -32% and “more than 30%”.
In assay [1], `CCOP(=O)(OCC)C(Cc1cc(C(C)(C)C)c(O)c(C(C)(C)C)c1)NCCCc1ccccc1` (stereo not drawn) [Compound 68, Diethyl α-(3,5-di-tert-butyl-4-hydroxybenzyl)-N-(3-phenylpropyl)-aminomethylphosphonate] showed an IC50 below 25 µM. Further, in the assay on plasma cholesterol, the change in vivo at 180 mg/kg/day was -18%.
For `CCOP(=O)(OCC)C(NCCOc1ccccc1)c1cc(C(C)(C)C)c(O)c(C(C)(C)C)c1` (stereo not shown) [Compound 28], the IC50 in assay [1] was below 25 µM. In addition, in the assay with plasma cholesterol, the change in vivo at 180 mg/kg/day came out at 4%.
Taken in the same sequence, the figures for `CCOP(=O)(OCC)C(NCc1ccc(OC)c(OC)c1)c1cc(C(C)(C)C)c(O)c(C(C)(C)C)c1` (stereo not shown) [Compound 39] were 4.9 µM and -4%.
Regarding `CCOP(=O)(OCC)C(Nc1ccc(Cl)cc1)c1cc(C(C)(C)C)c(O)c(C(C)(C)C)c1` (stereo not shown) [Compound 6], in assay [1], the IC50 is below 25 µM. Besides, the change in vivo at 180 mg/kg/day with plasma cholesterol was -17%.
Consider `CCOP(=O)(OCC)C(Nc1ccccc1)c1cc(C(C)(C)C)c(O)c(C(C)(C)C)c1` (stereo not shown) [Compound 3], for which the IC50 in assay [1] turned out to be 5.1 µM. Further, in the assay on plasma cholesterol, the change in vivo at 180 mg/kg/day was -30% and the “decrease plasma cholesterol by” value is on record as “more than 30%”.
Taken in the same sequence, the figures for `CC(=O)N(CCCc1ccccc1)C(c1cc(C(C)(C)C)c(O)c(C(C)(C)C)c1)P(=O)(OC(C)C)OC(C)C` (stereo not shown) [Compound 62] were below 25 µM, -32% and “more than 30%”.
Turning to `CCOP(=O)(OCC)C(NC(C)c1cccc2ccccc12)c1cc(C(C)(C)C)c(O)c(C(C)(C)C)c1` (stereo not shown) [Compound 31], the IC50 in assay [1] was below 25 µM. For the same compound, the change in vivo at 180 mg/kg/day in the assay with plasma cholesterol was -3%.
Taken in the same sequence, the figures for `CCOP(=O)(OCC)C(NC1(c2ccccc2)CCCC1)c1cc(C(C)(C)C)c(O)c(C(C)(C)C)c1` (stereo not drawn) [Compound 45, Diethyl α-(3,5-di-tert-butyl-4-hydroxyphenyl)-N-(1-phenylcyclopentyl)-aminomethylphosphonate] were below 25 µM and -14%.
Taken in the same sequence, the figures for `CCOP(=O)(OCC)C(NCCc1ccc(C)cc1)c1cc(C(C)(C)C)c(O)c(C(C)(C)C)c1` (stereo not shown) [Compound 14] were below 25 µM and -6%.
Taken in the same sequence, the figures for `CCOP(=O)(OCC)C(NCCCc1ccccc1)c1cc(C(C)(C)C)c(OC)c(C(C)(C)C)c1` (stereo not drawn) [Compound 67, Diethyl α-(3.5-di-tert-butyl-4-methoxyphenyl)-N-(3-phenylpropyl)-aminomethylphosphonate] were above 25 µM and -22%.
`CCOP(=O)(OCC)C(Nc1cccnc1)c1cc(C(C)(C)C)c(O)c(C(C)(C)C)c1` (stereo not shown) [Compound 41] yielded an IC50 in assay [1] of 3.5 µM. Besides, in the assay with plasma cholesterol, the change in vivo at 180 mg/kg/day is -35%.
Take `CCOP(=O)(OCC)C(NCCCCc1ccccc1)c1cc(C(C)(C)C)c(O)c(C(C)(C)C)c1` (stereo not drawn) [Compound 27, Diethyl α-(3 ,5-di-tert-butyl-4-hydroxyphenyl)-N-(4-phenylbutyl)-aminomethylphosphonate]: the IC50 in assay [1] stood at 2.1 µM. Besides, in the assay on plasma cholesterol, the change in vivo at 180 mg/kg/day is -43% and the “decrease plasma cholesterol by” value is reported as “more than 30%”.
As to `CCOP(=O)(OCC)C(NCc1ccccc1)c1cc(C(C)(C)C)c(O)c(C(C)(C)C)c1` (stereo not shown) [Compound 12], it took 0.7 µM to reach half-maximal inhibition in assay [1] (IC50). The change in vivo at 180 mg/kg/day in the assay with plasma cholesterol is -23%.
Taken in the same sequence, the figures for `CCOP(=O)(OCC)C(c1cc(C(C)(C)C)c(O)c(C(C)(C)C)c1)N(C)c1ccccc1` (stereo not shown) [Compound 50] were 2.9 µM and 5%.
`CCOP(=O)(OCC)C(NCc1cccnc1)c1cc(C(C)(C)C)c(O)c(C(C)(C)C)c1` (stereo not drawn) [Compound 42, Diethyl α-(3,5-di-tert-butyl-4-hydroxyphenyl)-N-(3-picolyl)-aminomethylphosphonate]: inhibition in assay [1] was half-maximal at 12.8 µM (IC50). In the assay on plasma cholesterol, the change in vivo at 180 mg/kg/day is -43% and the “decrease plasma cholesterol by” value is on record as “more than 30%”.
Turning to `CCOP(=O)(OCC)C(NCCc1ccc(Cl)cc1)c1ccc(O)cc1` (stereo not shown) [Compound 76], the IC50 in assay [1] was above 25 µM. Further, the change in vivo at 180 mg/kg/day in the assay on plasma cholesterol is -16%.
Taken in the same sequence, the figures for `CCOP(=O)(OCC)C(NC(C)CCc1ccccc1)c1cc(C(C)(C)C)c(O)c(C(C)(C)C)c1` (stereo not shown) [Compound 30] were 15.6 µM and -12%.

The values above are taken from patent US5424303A, “Substituted aminophosphonate derivatives, process for their preparation and pharmaceutical compositions containing them” (Symphar SA, priority 1992, dated 1995).
